Results from article PMC9781217, “Discovery of Novel and Selective G-Protein Coupled Receptor 120 (GPR120) Agonists for the Treatment of Type 2 Diabetes Mellitus” (Molecules, 2022).
Where two headings read alike, the source gives them in different places.

Legend:
human GPR120 (hGPR120) = target: T1, human GPR120 (hGPR120) (Homo sapiens, UniProt Q5NUL3); assay: Calcium flux assay in hGPR120-transfected CHO cells
T1 sequence (Q5NUL3 1-361): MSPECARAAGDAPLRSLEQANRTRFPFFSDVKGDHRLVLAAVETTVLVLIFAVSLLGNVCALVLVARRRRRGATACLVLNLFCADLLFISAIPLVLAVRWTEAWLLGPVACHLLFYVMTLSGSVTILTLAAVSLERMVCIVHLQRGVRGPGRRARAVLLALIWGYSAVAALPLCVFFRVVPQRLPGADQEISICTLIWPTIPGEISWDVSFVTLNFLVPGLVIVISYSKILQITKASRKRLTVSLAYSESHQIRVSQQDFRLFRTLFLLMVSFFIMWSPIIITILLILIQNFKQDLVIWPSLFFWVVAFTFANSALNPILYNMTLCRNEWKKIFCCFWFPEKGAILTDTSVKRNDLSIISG
Method: (§1) A calcium flux assay was performed to assess the agonist activity of the test compounds against the hGPR120 (mGPR120) and hGPR40 (mGPR40) receptors. […] The medium in the wells was gently discarded, and the wells were washed with Hank’s balanced salt solution (HBSS; 100 μL per well). […] The cells were then washed thrice in HBSS and allowed to equilibrate for 10 min before conducting the assay. Test compounds dissolved in dimethyl sulfoxide were diluted in HBSS at various concentrations and added to Fluo-4 AM-containing cells, and intracellular Ca^2+ concentrations were measured using FlexStation3 Molecular Devices. The EC50 value of each compound was calculated using GraphPad Prism software (version 5.0; GraphPad Software, San Diego, CA, USA).

[1] = Pharmacokinetic analysis in C57BL/6 mice; type: in vivo
Method: The pharmacokinetic profiles of 10k and 14d were obtained from C57BL/6 mice. […] The pharmacokinetic profiles traces were shown in the Supplementary Materials (Figure S1, see Supporting Materials).
Plasma was collected and precipitated using two volumes of acetonitrile containing an internal standard. This was followed by centrifugation at 15.680 g for 10 min after vortexing for 5 min. The supernatant was diluted with acetonitrile and 10 µL of the supernatant was analyzed by Waters LC-PDA-MS/MS to determine plasma drug levels. Pharmacokinetic parameters were determined using mean data from four mice at each time point. Statistical analysis of the data was performed using the DAS 2.1.1 statistical software program (BioVoice, Shanghai, China).

mouse GPR40 (mGPR40) = mouse GPR40 (mGPR40) (Mus musculus, UniProt Q76JU9); assay: Calcium flux assay in CHO cells expressing mouse GPR40
Sequence of mouse GPR40 (mGPR40) (Q76JU9 whole entry): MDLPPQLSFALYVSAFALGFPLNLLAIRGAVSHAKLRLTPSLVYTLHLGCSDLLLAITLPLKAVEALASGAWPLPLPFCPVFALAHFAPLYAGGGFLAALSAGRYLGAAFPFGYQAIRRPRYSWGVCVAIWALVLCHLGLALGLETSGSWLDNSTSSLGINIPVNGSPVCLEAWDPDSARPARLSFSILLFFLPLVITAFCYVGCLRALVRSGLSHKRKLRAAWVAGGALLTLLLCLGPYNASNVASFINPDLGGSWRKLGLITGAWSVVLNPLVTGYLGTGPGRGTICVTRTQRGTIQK
Method: as §1

DIO mice = assay: Anti-hyperglycemic effects (OGTT, insulin) in DIO mice; type: in vivo, C57BL/6 mice; details: 20 mg/kg oral
Method: Blood samples were collected with retro-orbital sinus puncture, and glucose levels were measured in accordance with the OGTT in normal mice. Plasma insulin levels were measured using a mouse insulin RIA kit (Beijing North Institute of Biological Technology, Beijing, China).

C57BL/6 mice = assay: Oral glucose tolerance test (OGTT) in normal C57BL/6 mice; type: in vivo
Method: GPR120 agonists have been reported to increase GLP-1 secretion and improve glucose tolerance in vivo [28]. […] Compound 14d was orally administered at doses of 3, 10, 30, and 100 mg/kg, 30 min before the oral glucose challenge at a dose volume of 3 g/kg. Glucose levels were measured from 30 min before glucose challenge to 120 min after the glucose challenge.
Normal male C57BL/6 mice aged 9 weeks were used for the OGTT for compound 14d. C57BL/6 mice were weighed and randomly divided into six groups (eight mice per group) after 12 h of fasting. The test compounds were dissolved in 0.5% MC and vortexed before the study initiation. […] The exact dose volume was calculated separately for each animal. Blood samples were collected via the tail tip 30 min before the compound dose, at t = 0 (immediately before glucose loading), and 15, 30, 60, and 120 min after glucose loading. Blood glucose levels were measured using blood glucose test strips (Sannuo GA-3 type; Changsha, China). Glucose values were entered into an Excel sheet and plotted using GraphPad Prism software.

mouse GPR120 (mGPR120) = target: T2, mouse GPR120 (mGPR120) (Mus musculus, UniProt Q7TMA4); assay: Calcium flux assay in CHO cells expressing mouse GPR120
T2 sequence (Q7TMA4 1-361): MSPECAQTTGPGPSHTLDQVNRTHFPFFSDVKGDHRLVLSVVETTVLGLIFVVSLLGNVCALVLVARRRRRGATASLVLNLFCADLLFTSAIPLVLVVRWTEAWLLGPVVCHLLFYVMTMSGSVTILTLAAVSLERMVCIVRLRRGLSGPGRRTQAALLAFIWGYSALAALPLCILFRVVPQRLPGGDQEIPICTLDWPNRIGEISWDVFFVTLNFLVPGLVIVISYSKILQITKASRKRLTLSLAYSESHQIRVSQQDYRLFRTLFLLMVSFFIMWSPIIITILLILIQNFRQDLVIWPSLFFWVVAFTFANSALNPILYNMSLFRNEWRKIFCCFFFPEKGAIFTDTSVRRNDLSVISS
Method: as §1

[2] = hGPR120, concentration response curve
[3] = mGPR120, concentration response curve

EC50 (human GPR120 (hGPR120)): 37.5 nM
Hill slope (human GPR120 (hGPR120); [2]): 0.9540
Hill slope (95%CI) (human GPR120 (hGPR120); [2]): 0.8259-1.0820
Agonist type from dose-dependent curves (human GPR120 (hGPR120); hGPR120 and mGPR120): full agonist
metabolic stability in vivo ([1]; C57BL/6 mice, pharmacokinetics, in words): excellent metabolic stability
Tmax ([1]; male, mouse, plasma, po, C57BL/6 mice, 10 mg/kg gavage): 0.5 h
Cmax ([1]; male, mouse, plasma, po, C57BL/6 mice, 10 mg/kg gavage, 0.5% MC, mean ± SD of four mice): 2650 ± 288 ng/mL
AUC ([1]; male, mouse, plasma, po, C57BL/6 mice, 10 mg/kg gavage, mean ± SD of four mice): 5900 ± 584 ng·h/mL
half-life ([1]; male, mouse, plasma, po, C57BL/6 mice, 10 mg/kg gavage, mean ± SD of four mice, read-out: t1/2 (converted)): 1.6 ± 0.4 h
clearance ([1]; rodents, in words): low clearance
half-life ([1]; rodents, in words): long half-life
melting point: 89 to 91 °C
EC50 (mouse GPR40 (mGPR40)): 12700 nM
EC50 (mouse GPR120 (mGPR120)): 83.2 nM
Hill slope (mouse GPR120 (mGPR120); [3]): 0.7745
Hill slope (95%CI) (mouse GPR120 (mGPR120); [3]): 0.5397-1.0090
Selectivity (mouse GPR120 (mGPR120); mGPR120 over mGPR40): 152.6
SMILES: O=C(O)CCCOc1ccc(COc2cc(F)ccc2-c2ccc(F)cc2)cc1F [Compound 14d, 4-(4-(((4,4′-difluoro-[1,1′-biphenyl]-2-yl)oxy)methyl)-2-fluorophenoxy)butanoic acid]
insulin levels 30 min after the glucose challenge (DIO mice; compared to vehicle-treated mice): significantly increased insulin levels
glucose AUC0–120 min (DIO mice; glucose 2 g/kg): significantly lower than that of vehicle-treated mice
blood glucose in OGTT (C57BL/6 mice; 30 mg/kg oral, glucose 3 g/kg, superior to TUG-891): significant reduction in blood glucose
dose dependence of glucose lowering and glucose AUC (C57BL/6 mice; 3, 10, 30, 100 mg/kg oral): dose-dependent
reduction of plasma glucose AUC (C57BL/6 mice; OGTT, 30 mg/kg oral, after 120 min, compared with glucose alone, p < 0.001): 25%
hypoglycemia during OGTT (C57BL/6 mice; normal C57BL/6 mice, during the experiment): no hypoglycemia was observed
hypoglycemic side effects (C57BL/6 mice; normal mice, even at a dose of 100 mg/kg): no hypoglycemic side effects were detected
